Measured values from patent US20110034472A1, “Novel Compounds for Treatment of Cancer and Disorders Associated With Angiogenesis Function” (UNIVERSITY OF SOUTHERN CALIFORNIA, priority 2004, published 2011).
Entries after “also recorded” stand apart in the source; their conditions may differ.

Key:
DU145 cells = experiment: Annexin V/propidium iodide apoptosis assay, DU145; format: cell-based, human; conditions: 72 hours exposure, IC80
Description: FIG. 19 illustrates apoptosis analysis of DU145 cells treated with SC21 or CPT (IC80). Cells were treated with SC21 or CPT for 24, 48, and 72 h, harvested, stained with annexin V/propidium iodide and analyzed by flow cytometry. Untreated control cells (24 and 48 h) were also included in the analysis. Annexin VFITC signals are recorded in FL1-H or […] and propidium iodide in FL2-H or […]. Cells in the bottom left quadrant (annexin V-negative, propidium iodide-negative) are viable, whereas cells in the right quadrant (annexin V-positive, propidium iodide-negative) are in the early stages of apoptosis, and the cells in the top right quadrant (annexin V-positive, propidium iodide-positive) are in later stages of apoptosis and necrosis.
To quantify drug-induced apoptosis, annexin V/propidium iodide staining was done followed by flow cytometry. […] The resulting fluorescence (FLH-1 channel for green fluorescence and FLH-2 channel for red fluorescence) was measured by flow cytometry using a FACScan flow cytometer (Becton Dickinson).
SC21 and CPT-induced apoptosis was measured by flow cytometry (FIG. 18). SC21 at an IC80 dose for 72 hours induced 12% to 15% apoptosis as measured by calculating sub-G0/G1 population. […] This event precedes nuclear breakdown, DNA fragmentation, the appearance of most apoptosis-associated molecules, and is readily measured by annexin V binding assay. […]

PC3 xenografts = experiment: PC3 human prostate cancer xenograft in athymic nude mice; format: in vivo
Description: FIG. 20. (A) is a schematic outline of tumor growth and dosing in PC3 mice xenografts. […] Athymic nude mice implanted with PC3 cells were treated with the indicated concentration of SC21 through daily i.p. administration for 5 d. Tumor growth was monitored for 5 wks. Values represent the tumor weight (mean±SD) for each group. (C) depicts dose-response to SC21 in the PC3 xenograft. Values represent the % T/C from each treatment group on the last day of measurement (after 5 wks); bars,±SD.
Fifty male athymic nude (nu/nu) mice (Charles River Laboratories, Wilmington, Mass.) were used for in vivo testing. The animals were fed ad libitum and kept in air conditioned rooms at 20±2° C. with a 12-hour light-dark period. Animal care and manipulation were in agreement with the University of Southern California Institutional Guidelines, which are in accordance with the Guidelines for the Care and Use of Laboratory Animals.
PC3 cells from in vitro cell culture were inoculated s.c. in both flanks of athymic nude mice (2×10^6 cells/flank) under aseptic conditions. Tumor growth was assessed by biweekly measurement of tumor diameters with a Vernier caliper (length×width). Tumor weight was calculated according to the formula: TW (mg)=tumor volume (mm^3)=d^2×D/2, where d and D are the shortest and longest diameters, respectively. Cells were allowed to grow to an average volume of 100 mm^3. Animals were then randomly assigned for control and treatment groups, to receive control vehicle or SC21 (0.3 and 3 mg/kg, dissolved in isotonic saline solution) via i.p. injections once a day for 5 days. Treatment of each animal was based on individual body weight. After 5 days of treatment, the tumor volumes in each group were measured […]. Treated animals were checked daily for treatment toxicity/mortality. The percentage of tumor growth inhibition was calculated as % T/C=100× (mean TW of treated group/mean TW of control group).
The in vivo efficacy of SC21 was evaluated in nude mice inoculated with human prostate PC3 cells. Animals were treated with daily i.p. injections of saline (controls) and SC21 at 0.3 or 3 mg/kg. After 5 days of dosing, the drug treatment was discontinued and the animals were monitored biweekly for 5 weeks.

HT29 colon cancer cells = experiment: Sensitivity of various cancer cells to SC144, HT29; format: cell-based; conditions: Homo sapiens, HT-29
Text: The studies were expanded to other cell lines. […] Subnanomolar to low nanomolar potency was also observed in HCT-116 and HT29 colon cancer cell lines (Table 2).

[1] = system: panel of seven human cancer cell lines; experiment: MTT-assay, panel of seven human cancer cell lines; format: cell-based; conditions: read-out: CC50 dose range
Description: The sensitivity of a panel of seven human cancer cell lines to SC144 was assessed by MTT-assay. […] The sensitivity towards SC144 was time- and dose-dependent.

[2] = system: HCT 116 p53^+/+ colon cancer cells; experiment: MTT cytotoxicity assay, HCT 116 p53+/+; format: cell-based, human; conditions: Homo sapiens, 72 h
Text: Human breast cancer cells MDA-MB-435 and colon cancer HT29, p53 mutant were purchased from the American Type Cell Culture (Manassas, Va.). The HCT116 P53^+/+ and HCT116 P53^−/− cells were kindly provided by Dr. Bert Vogelstein (Johns Hopkins Medical Institutions, Baltimore, Md.). Human prostate cancer cells, LNCaP, were kindly provided by Richard Cote (University of Southern California Keck School of Medicine). Cells were maintained as monolayer cultures in RPMI 1640 media supplemented with 10% fetal bovine serum (Gemini-Bioproducts, Woodland, Calif.) and 2 mmol/L L-glutamine at 37° C. in a humidified atmosphere of 5% CO2. To remove the adherent cells from the flask for passaging and counting, cells were washed with PBS without calcium or magnesium, incubated with a small volume of 0.25% trypsin-EDTA solution (Sigma-Aldrich, St. Louis, Mo.) for 5-10 min, and washed with culture medium and centrifuged. All experiments were performed using cells at exponential growth stage. Cells were routinely checked for mycoplasma contamination using a PCR-based assay (Stratagene, Cambridge, UK).
Cytotoxicity was assessed by a 3-(4,5-dimethylthiazol-2-yl)-2,5-diphenyltetrazolium bromide (MTT) assay as previously described.^9 Briefly, cells were seeded in 96-well microtiter plates and allowed to attach. Cells were subsequently treated with continuous exposure to the corresponding drug for 72 h. An MTT solution (at a final concentration of 0.5 mg/mL) was added to each well, and cells were incubated for 4 h at 37° C. After removal of the medium, DMSO was added and the absorbance was read at 570 nm. All assays were done in triplicate. The IC50 was then determined for each drug from a plot of log (drug concentration) versus percentage of cells killed.

[3] = 0.3 or 3 mg/kg daily i.p. for 5 days

## O=C(NNC(=O)c1ccccc1O)C1=CC2C=CC=CC2C=C1O (centres unmarked) [SC21]
DU145 cells
  early plus late apoptotic cells: 72%
PC3 xenografts; 0.3 mg/kg of SC21
  average weight of mice: 32.1 ± 1.92 g
PC3 xenografts; 3.0 mg/kg of SC21
  average weight of mice: 33.3 ± 1.89 g
PC3 xenografts; [3]
  tolerability, drug-related deaths, body weight: well-tolerated and did not result in any drug-related deaths and changes in body weight
  tumor burden / tumor growth: significantly reduced tumor burden; also recorded: Significant reduction in tumor growth

## O=C(NNc1nc2cc(F)ccc2n2cccc12)c1cnccn1 [SC144, Pyrazine-2-carboxylic acid N′-(7-fluoro-pyrrolo[1,2-a]quinoxalin-4-yl)-hydrazide]
HT29 colon cancer cells
  CC50: 78 nM
[1]
  CC50: 700 to 10000 nM
[2]
  IC50: 600 ± 70 nM
